Like-named read-outs stand apart in the source and are kept apart here.
Tests used:
[1] = Stability in serum-free DMEM containing 5% DMSO by UV–vis; format: physicochemical; settings: DMEM with 5% DMSO, 25 μM, 37 °C; for stability in serum-free DMEM, UV–vis spectral changes, first 4 h: dark or with 5 min irradiation at 450 nm
From the text: The stability of complexes 1–4 was then investigated in more biologically relevant media by UV–visible spectroscopy. First, the stability of the complexes was studied in phosphate-buffered saline (PBS) containing 5% DMSO (Figure S30). […] Only a decrease in the intensity of all bands was observed, which could be attributed to partial aggregation and/or precipitation. […] The stability of complexes 1–4 was next studied in serum-free DMEM cell culture containing 5% DMSO (Figure S31). […] This final species seemed to have spectral features similar to those observed for complex 4 (Figure S31A). […] The similarity of the spectral features of the transformed species in all cases seemed to point to the formation of a common species upon incubation in DMEM, which we tentatively attribute to the decoordination of the picolinate ligands with a substituent-dependent kinetics; the COOH group favored the release of the picolinate ligand, while both NH2 and OH substituents seemed to slow down this process.
The UV–vis spectra of complexes 1–4 were recorded in PBS:DMSO (95/5) and serum-free DMEM:DMSO (95/5) at a concentration of 25 μM on a Cary 50 spectrophotometer (Varian).

MCF-10A [2] = test: MTT cell viability assay on noncancerous MCF-10A cells, dark and 450 nm irradiation; format: cell-based, human; settings: for EC50: MTT
From the text: (§1) (C∧N) cyclometalated Pt(II) complexes have been previously reported to have strong antiproliferative activities when associated with phenanthroline-based, diphosphine, acyclic diamino carbenes, or picolinate ligands. In particular, (Me2N-pbt)-cyclometalated platinum complexes have been previously reported by some of us to have antiproliferative properties in the micromolar range on a panel of cancer cell lines, prompting us to investigate the anticancer properties of complexes 1–4 in dark conditions and, considering their high quantum yield (ϕΔ) of ^1O2 generation, under irradiation conditions. Due to the poor solubility of the complexes in an aqueous environment, complexes 1–4 were first dissolved in DMSO and diluted in the culture media to reach a final concentration of 1% DMSO when incubated with the cells. All complexes were screened against the so-called “triple-negative” breast cancer cell line MDA-MB-231, lung adenocarcinoma cell line A549, and the noncancerous breast cell line MCF-10A for 72 h in dark conditions and under 5 min irradiation at 450 nm (see Experimental Section for details). The irradiation time was kept short to prevent light-induced toxicity of the energetic wavelength observed at longer irradiation times (data not shown). The measurement of the effective concentration at 50% (EC50) was carried out using the classical MTT assay, and the data are provided in Table .
(§2) In dark conditions, we could notice a strong influence of substituents on the picolinate ligands. […] This can be correlated with its poor stability in the culture medium mentioned above, which might reduce its cellular uptake. […] However, in dark conditions, no particular selectivity for cancer cells could be observed with similar activity measured against the noncancerous cell line MCF-10A. For the “light” experiments, the cells were preincubated with the complexes for 4 h in the dark, irradiated at 450 nm for 5 min, and then put back in the dark until 72 h. The photoactivity index (PI) values, defined as the ratio between the EC50 in dark conditions and the EC50 after irradiation for each cell line, are shown in Figure .
(§3) The human lung adenocarcinoma cell line A549 and human breast cancer cell line MDA-MB-231 were cultivated in DMEM (Dulbecco’s modified Eagle’s medium) containing GlutaMax I supplemented with 10% FBS at 37 °C in a humidified atmosphere and 5% CO2. The noncancerous cell line MCF-10A was maintained in DMEM:F12 (1:1) cell culture media, 5% heat-inactivated horse serum, supplemented with HEPES (20 mM), L-glutamine (2 mM), epidermal growth factor (20 ng/mL), hydrocortisone (500 ng/mL), cholera toxin (100 ng/mL), and insulin (10 μg/mL). Cell viability was evaluated by using a colorimetric method based on the tetrazolium salt MTT [3-(4,5-dimethylthiazol-2-yl)-2,5-diphenyltetrazolium bromide], which is reduced by viable cells to yield purple formazan crystals. Cells were seeded in 96-well plates at a density of 40000 cells/mL (100 μL per well). Stock solutions were prepared in DMSO for complexes 1–4 and in water for cisplatin. […] For dark experiments, after overnight attachment, a dilution series of the compounds was added to the medium, and the cells were incubated for a further 72 h. For the irradiated experiments, after overnight attachment, a dilution series of the compounds was added to the medium, and the cells were preincubated for 4 h. The cells were then irradiated at 450 nm for 5 min with a Kessil Lamp (power: 3 mW/cm^2, 1.13 × 10^–8 Einstein/s at 20 cm distance between the light source and 96-well plate) and the incubation was continued until 72 h. After 72 h, the medium was removed and the cells were incubated with MTT solution in PBS (10 μL of 5 mg/mL) for 2–3 h. The formed purple formazan crystals were dissolved in 100 μL of DMSO by thorough shaking, and the absorbance at 580 nm was read using a microplate reader (FLUOstar OPTIMA, BMG Labtech). Each test was performed with at least 3 replicates and repeated at least 3 times. […]

Solubility (statements) = format: physicochemical
A549 [3] = test: MTT cell viability assay on A549 cells, dark and 450 nm irradiation; format: cell-based, human; settings: for EC50: MTT
From the text: as §1, §2, §3

MDA-MB-231 [4] = test: MTT cell viability assay on MDA-MB-231 cells, dark and 450 nm irradiation; format: cell-based, human; settings: for EC50: MTT
From the text: as §1, §2, §3

MCF-10A [5] = system: MCF-10A; parameters: method as in earlier work; settings: 72 h, dark; footnote b: values taken from ref (number not given); cited from earlier work
CT-DNA = test: Interaction with CT-DNA by circular dichroism; format: binding, calf; settings: 50 μM CT-DNA, 50 μM cisplatin, 37 °C, 24 h in the dark (positive control)
Method: Platinum(II) complexes, such as cisplatin, presenting exchangeable ligands are well known to interact with puric bases of DNA, leading to the formation of intra- and interstrand cross-links and in turn to transcription inhibition, cell cycle arrest, and ultimately cell death. Based on the reactivity in the cell culture medium, the interaction of complexes 1–4 and cisplatin with CT-DNA was investigated by circular dichroism (CD) spectroscopy after incubation at 37 °C for 24 h in the dark or for 4 h incubation and 5 min irradiation at 450 nm, followed by 20 h incubation, following a reported protocol. The CD spectrum of CT-DNA presents a positive peak at 280 nm, assigned to base stacking, and a negative peak at 245 nm, assigned to helicity.
A stock solution of calf thymus DNA (CT-DNA) was prepared in 5 mM TRIS·HCl, and 50 mM NaCl (pH 7.4). The concentration of nucleotides was assayed at 260 nm using ε = 6600 M^–1.cm^–1 (c = 3.38 mM). […] Circular dichroism spectra (238–340 nm, 5 scans) were recorded in a 1 cm path length cell on a J-815 CD spectrometer (JASCO) at 20 °C with 0.1 nm data pitch, 50 nm/min scan speed, and 1 nm bandwidth.

A549 [6] = system: A549; parameters: method as in earlier work; settings: 72 h, dark; footnote b: values taken from ref (number not given); cited from earlier work
MDA-MB-231 [7] = system: MDA-MB-231; parameters: method as in earlier work; settings: 72 h, dark; footnote b: values taken from ref (number not given); cited from earlier work
[8] = Singlet oxygen generation, NIR emission at 1274 nm versus phenalenone; format: physicochemical; settings: aerated acetonitrile 5 × 10^–5 M, 298 K, excitation 365 nm, reference phenalenone
Method: In aerated DMSO solutions, complexes 1–3 display a fluorescence band only at ca 510 nm, attributed to ^1LL′CT/^1ILCT, due to easy quenching of the phosphorescence by oxygen. However, upon prolonged photoexcitation at 365 nm, a continuous enhancement of the phosphorescence band is observed. Simply irradiating with a hand UV–vis lamp, the initial blue-green emission gradually shifts to the orange enhanced emission. The phosphorescence increases its maximum intensity in ca 15 1, 8 2, or 12 min 3 (Figures and S23). […] This relatively rare behavior has been previously observed by us , and other groups, and is explained by the occurrence of a local sensitization caused by energy transfer from the low-energy triplet to ^3O2-producing singlet ^1O2, which is able to selectively react with the solvent creating a free oxygen microenvironment that switches-on a phosphorescence band due to ^3ILCT at 580 nm. The strong sensitivity of the phosphorescence emission in these complexes encourages us to determine their efficiency as ^1O2 sensitizers. The singlet oxygen generation of complexes 1–3 was examined in acetonitrile solution (5 × 10^–5 M) using a near-infrared detector upon excitation at 365 nm, detecting the characteristic emission profile of ^1O2 at λem ∼ 1274 nm (Figure ).

HeLa = system: HeLa; parameters: method as in not given; settings: previously reported by the authors, ref not given, cited from earlier work
A549 [9] = system: A549; parameters: method as in not given; settings: previously reported by the authors, ref not given, cited from earlier work
[10] = 4 h preincubation, 5 min irradiation at 450 nm, then dark until 72 h, read-out: EC50 MCF-10A light
[11] = 72 h incubation at 37 °C, dark, read-out: EC50 MCF-10A dark
[12] = 4 h preincubation, 5 min irradiation at 450 nm, then dark until 72 h, read-out: EC50 A549 light
[13] = 72 h incubation at 37 °C, dark, read-out: EC50 A549 dark
[14] = 4 h preincubation, 5 min irradiation at 450 nm, then dark until 72 h, read-out: EC50 MDA-MB-231 light
[15] = 72 h incubation at 37 °C, dark, read-out: EC50 MDA-MB-231 dark

Compound	stability in serum-free DMEM, UV–vis spectral changes, first 4 h [1]	EC50 (MCF-10A [2]; [10]) [µM]	EC50 (MCF-10A [2]; [11]) [µM]	EC50 (A549 [3]; [12]) [µM]	EC50 (A549 [3]; [13]) [µM]	EC50 (MDA-MB-231 [4]; [14]) [µM]	EC50 (MDA-MB-231 [4]; [15]) [µM]	stability in serum-free DMEM, UV–vis spectral changes, 24 h [1]	quantum yield (ϕΔ) of 1O2 [8] [%]	also measured
[Pt(Me2N-pbt)(4-COOH-pic-κN,O)] [Complex 4]	quantitative transformation	15 ± 0.9	21.7 ± 4.2	> 100	> 100	15.9 ± 3.6	42.4 ± 4.2	–	–	photoactivity index (PI), EC50 dark / EC50 after irradiation, MCF-10A (MCF-10A [2]; 5 min irradiation at 450 nm): very limited phototoxicity; solubility (Solubility (statements)): only soluble in DMSO; photoactivity index (PI), EC50 dark / EC50 after irradiation, A549 (A549 [3]; 5 min irradiation at 450 nm): very limited phototoxicity; photoactivity index (PI), EC50 dark / EC50 after irradiation, MDA-MB-231 (MDA-MB-231 [4]; 5 min irradiation at 450 nm): very limited phototoxicity
N.N.[Cl][Pt][Cl] [Cisplatin]	–	–	–	–	–	–	–	–	–	EC50 (MCF-10A [5]): 2.9 ± 0.8 µM; modification of the CD spectrum of CT-DNA (CT-DNA): decrease of the band at 245 nm and an increase of the band at 280 nm; EC50 (A549 [6]): 1.7 ± 0.5 µM; EC50 (MDA-MB-231 [7]): 20.4 ± 3.4 µM
[Pt(Me2N-pbt)(3-NH2-pic-κN,O)] [Complex 2]	no spectral changes	0.4 ± 0.1	0.7 ± 0.2	1 ± 0.2	1.9 ± 0.4	0.26 ± 0.05	0.8 ± 0.2	spectral features of both complexes changed	17.4	–
[Pt(Me2N-pbt)(pic-κN,O)] [Complex 1]	first spectral modification	0.3 ± 0.1	0.47 ± 0.05	0.57 ± 0.03	1.5 ± 0.1	0.17 ± 0.05	0.5 ± 0.06	further evolved	13.6	–
[Pt(Me2N-pbt)(o-dpb)]	–	–	–	–	–	–	–	–	–	IC50 (HeLa; 1 min of irradiation (396 nm), read-out: IC50 HeLa upon irradiation): 1.5 µM; activity in the dark, HeLa (HeLa; dark): inactive; IC50 (A549 [9]; 1 min of irradiation (396 nm), read-out: IC50 A549 upon irradiation): 0.83 µM; activity in the dark, A549 (A549 [9]; dark): inactive

Reference: publication PMC12176268, “Structural Features and Photophysical and Antiproliferative Properties of Me2N‑pbt-Cycloplatinated Complexes with Picolinate Ligands” (Inorganic Chemistry, 2025)
